Measured values published in PubChem BioAssay (NCI).
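Following 48 hours of exposure in 96-well plates, responses at five concentrations were used to interpolate endpoints linearly. Definition used: TGI = concentration required for complete inhibition of growth.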

Key:
Assay in all cases: NCI tumour cell line growth inhibition, 48 h
CAKI-1 renal = test system: CAKI-1 renal
MOLT-4 leukemia = test system: MOLT-4 leukemia
M14 melanoma = test system: M14 melanoma
UO-31 renal = test system: UO-31 renal
LOX IMVI melanoma = test system: LOX IMVI melanoma
HL-60(TB) leukemia = test system: HL-60(TB) leukemia
SK-MEL-28 melanoma = test system: SK-MEL-28 melanoma
M19-MEL melanoma = test system: M19-MEL melanoma
OVCAR-8 ovarian = test system: OVCAR-8 ovarian
XF 498 CNS = test system: XF 498 CNS
HCT-15 colon = test system: HCT-15 colon
NCI-H23 lung = test system: NCI-H23 lung
SK-MEL-2 melanoma = test system: SK-MEL-2 melanoma
TK-10 renal = test system: TK-10 renal
UACC-257 melanoma = test system: UACC-257 melanoma
SNB-19 CNS = test system: SNB-19 CNS
IGROV1 ovarian = test system: IGROV1 ovarian
EKVX NSCLC = test system: EKVX NSCLC
SNB-75 CNS = test system: SNB-75 CNS
HOP-92 NSCLC = test system: HOP-92 NSCLC
U251 CNS = test system: U251 CNS
SK-MEL-5 melanoma = test system: SK-MEL-5 melanoma
SN12C renal = test system: SN12C renal
RPMI-8226 leukemia = test system: RPMI-8226 leukemia
COLO 205 colon = test system: COLO 205 colon
HCT-116 colon = test system: HCT-116 colon
SF-295 CNS = test system: SF-295 CNS
DLD-1 colon = test system: DLD-1 colon
OVCAR-3 ovarian = test system: OVCAR-3 ovarian
MALME-3M melanoma = test system: MALME-3M melanoma
SW-620 colon = test system: SW-620 colon
SNB-78 CNS = test system: SNB-78 CNS
OVCAR-4 ovarian = test system: OVCAR-4 ovarian
RXF-631 renal = test system: RXF-631 renal
HOP-62 NSCLC = test system: HOP-62 NSCLC
K-562 leukemia = test system: K-562 leukemia
ACHN renal = test system: ACHN renal
A549 NSCLC = test system: A549 NSCLC
KM20L2 colon = test system: KM20L2 colon
UACC-62 melanoma = test system: UACC-62 melanoma
HOP-18 NSCLC = test system: HOP-18 NSCLC
SK-OV-3 ovarian = test system: SK-OV-3 ovarian
NCI-H460 lung = test system: NCI-H460 lung
DMS 273 small cell lung = test system: DMS 273 small cell lung
HT29 colon = test system: HT29 colon
DMS 114 small cell lung = test system: DMS 114 small cell lung
RXF 393 renal = test system: RXF 393 renal
786-0 renal = test system: 786-0 renal
SR leukemia = test system: SR leukemia
HCC-2998 colon = test system: HCC-2998 colon
LXFL 529 NSCLC = test system: LXFL 529 NSCLC
CCRF-CEM leukemia = test system: CCRF-CEM leukemia
SF-539 CNS = test system: SF-539 CNS
OVCAR-5 ovarian = test system: OVCAR-5 ovarian
A498 renal = test system: A498 renal
KM12 colon = test system: KM12 colon
SF-268 CNS = test system: SF-268 CNS
NCI-H226 lung = test system: NCI-H226 lung
NCI-H522 lung = test system: NCI-H522 lung

CCOC(=O)Cc1cc(OC)c(OC)cc1/C(Cl)=C(\C=O)c1ccc(OC)c(OC)c1
TGI (CAKI-1 renal): 75.5 µM | TGI (MOLT-4 leukemia): 42.1 µM | TGI (M14 melanoma): 32.1 µM | TGI (UO-31 renal): 85.3 µM | TGI (LOX IMVI melanoma): 36.4 µM | TGI (HL-60(TB) leukemia): 40.9 µM | TGI (SK-MEL-28 melanoma): 65.7 µM | TGI (M19-MEL melanoma): 55.6 µM | TGI (OVCAR-8 ovarian): 80.8 µM | TGI (XF 498 CNS): 46.2 µM | TGI (HCT-15 colon): 45.2 µM | TGI (NCI-H23 lung): 51.2 µM | TGI (SK-MEL-2 melanoma): 62.9 µM | TGI (TK-10 renal): 90.8 µM | TGI (UACC-257 melanoma): 32.9 µM | TGI (SNB-19 CNS): > 100 µM | TGI (IGROV1 ovarian): 78.9 µM | TGI (EKVX NSCLC): 71.7 µM | TGI (SNB-75 CNS): > 100 µM | TGI (HOP-92 NSCLC): 10.3 µM | TGI (U251 CNS): 33.1 µM | TGI (SK-MEL-5 melanoma): 35.1 µM | TGI (SN12C renal): 33.5 µM | TGI (RPMI-8226 leukemia): 43.1 µM | TGI (COLO 205 colon): 50.6 µM | TGI (HCT-116 colon): 29 µM | TGI (SF-295 CNS): 29 µM | TGI (DLD-1 colon): 48.8 µM | TGI (OVCAR-3 ovarian): 28.1 µM | TGI (MALME-3M melanoma): 74.3 µM | TGI (SW-620 colon): 57 µM | TGI (SNB-78 CNS): 81.1 µM | TGI (OVCAR-4 ovarian): 56.3 µM | TGI (RXF-631 renal): 49 µM | TGI (HOP-62 NSCLC): 46.9 µM | TGI (K-562 leukemia): 56.5 µM | TGI (ACHN renal): 55.6 µM | TGI (A549 NSCLC): 57.1 µM | TGI (KM20L2 colon): 35.7 µM | TGI (UACC-62 melanoma): 37.9 µM | TGI (HOP-18 NSCLC): 75.4 µM | TGI (SK-OV-3 ovarian): 86 µM | TGI (NCI-H460 lung): 17.9 µM | TGI (DMS 273 small cell lung): 44.3 µM | TGI (HT29 colon): 29.2 µM | TGI (DMS 114 small cell lung): 48.8 µM | TGI (RXF 393 renal): > 100 µM

Cc1cc(Cl)ccc1NC(=O)CC/C(CC(=O)C(C)C)=N\NC(=O)C[n+]1ccccc1
TGI (CAKI-1 renal): > 100 µM | TGI (MOLT-4 leukemia): > 100 µM | TGI (M14 melanoma): > 100 µM | TGI (UO-31 renal): > 100 µM | TGI (LOX IMVI melanoma): > 100 µM | TGI (786-0 renal): > 100 µM | TGI (HL-60(TB) leukemia): > 100 µM | TGI (SR leukemia): > 100 µM | TGI (SK-MEL-28 melanoma): > 100 µM | TGI (OVCAR-8 ovarian): > 100 µM | TGI (XF 498 CNS): > 100 µM | TGI (HCT-15 colon): > 100 µM | TGI (NCI-H23 lung): > 100 µM | TGI (SK-MEL-2 melanoma): > 100 µM | TGI (TK-10 renal): > 100 µM | TGI (UACC-257 melanoma): > 100 µM | TGI (SNB-19 CNS): > 100 µM | TGI (IGROV1 ovarian): > 100 µM | TGI (EKVX NSCLC): > 100 µM | TGI (SNB-75 CNS): > 100 µM | TGI (HOP-92 NSCLC): > 100 µM | TGI (HCC-2998 colon): > 100 µM | TGI (U251 CNS): > 100 µM | TGI (SK-MEL-5 melanoma): > 100 µM | TGI (SN12C renal): > 100 µM | TGI (LXFL 529 NSCLC): > 100 µM | TGI (RPMI-8226 leukemia): > 100 µM | TGI (COLO 205 colon): > 100 µM | TGI (HCT-116 colon): > 100 µM | TGI (SF-295 CNS): > 100 µM | TGI (OVCAR-3 ovarian): > 100 µM | TGI (MALME-3M melanoma): > 100 µM | TGI (SW-620 colon): > 100 µM | TGI (CCRF-CEM leukemia): > 100 µM | TGI (SNB-78 CNS): > 100 µM | TGI (OVCAR-4 ovarian): > 100 µM | TGI (SF-539 CNS): > 100 µM | TGI (OVCAR-5 ovarian): > 100 µM | TGI (A498 renal): > 100 µM | TGI (RXF-631 renal): > 100 µM | TGI (KM12 colon): > 100 µM | TGI (HOP-62 NSCLC): > 100 µM | TGI (K-562 leukemia): > 100 µM | TGI (ACHN renal): > 100 µM | TGI (SF-268 CNS): > 100 µM | TGI (A549 NSCLC): > 100 µM | TGI (KM20L2 colon): > 100 µM | TGI (NCI-H226 lung): > 100 µM | TGI (UACC-62 melanoma): > 100 µM | TGI (HOP-18 NSCLC): > 100 µM | TGI (NCI-H522 lung): > 100 µM | TGI (SK-OV-3 ovarian): > 100 µM | TGI (NCI-H460 lung): > 100 µM | TGI (DMS 273 small cell lung): > 100 µM | TGI (HT29 colon): > 100 µM | TGI (DMS 114 small cell lung): > 100 µM | TGI (RXF 393 renal): > 100 µM
